From article PMC5218480 (PLoS ONE, 2017) come the findings set out here.

Each structure is given as a SMILES string.

The subject of the test is MV-4-11 cells. As to the kind of experiment: Gene expression microarray analysis (Affymetrix PrimeView) and GSEA. In kind it is cell-based, human. Further details: RFU PODN (11730768_x_at) / Fold change /veh PODN (11730768_x_at) / RFU LINC00158 (11744669_a_at) / Fold change /veh LINC00158 (11744669_a_at) / RFU DUSP10 (11751237_a_at) / Fold change /veh DUSP10 (11751237_a_at) / RFU ID3 (11757404_x_at) / Fold change /veh ID3 (11757404_x_at) / RFU PLEKHG5 (11737974_s_at) / Fold change /veh PLEKHG5 (11737974_s_at) / RFU LRRC4B (11730491_at) / Fold change /veh LRRC4B (11730491_at) / RFU GIMAP4 (11747438_a_at) / Fold change /veh GIMAP4 (11747438_a_at) / RFU KRT8 (11758183_x_at) / Fold change /veh KRT8 (11758183_x_at) / RFU CNN1 (11734310_a_at) / Fold change /veh CNN1 (11734310_a_at) / RFU VPS37D (11726825_at) / Fold change /veh VPS37D (11726825_at) / RFU C10orf10 (11716522_x_at) / Fold change /veh C10orf10 (11716522_x_at) / RFU KIR2DL2 /// KIR2DL4 /// KIR2DL5A /// KIR2DL5B /// KIR2DS1 /// KIR2DS2 /// KIR2DS3 /// KIR2DS4 /// KIR3DL3 /// KIR3DL3 /// KIR3DS1 (11738374_at) / Fold change /veh KIR2DL2 /// KIR2DL4 /// KIR2DL5A /// KIR2DL5B /// KIR2DS1 /// KIR2DS2 /// KIR2DS3 /// KIR2DS4 /// KIR3DL3 /// KIR3DL3 /// KIR3DS1 (11738374_at) / RFU C1QL1 (11718748_at) / Fold change /veh C1QL1 (11718748_at) / RFU TMPRSS4 (11747572_a_at) / Fold change /veh TMPRSS4 (11747572_a_at) / RFU HAMP (11756126_x_at) / Fold change /veh HAMP (11756126_x_at) / RFU RNFT2 (11725882_a_at) / Fold change /veh RNFT2 (11725882_a_at) / RFU NR4A2 (11747474_a_at) / Fold change /veh NR4A2 (11747474_a_at) / RFU ABCC12 (11746883_a_at) / Fold change /veh ABCC12 (11746883_a_at) / RFU TMEM136 (11760407_x_at) / Fold change /veh TMEM136 (11760407_x_at) / RFU CLDN22 /// WWC2 (11732394_at) / Fold change /veh CLDN22 /// WWC2 (11732394_at) / RFU HLA-DPB1 (11760878_x_at) / Fold change /veh HLA-DPB1 (11760878_x_at) / RFU SPINT1 (11716480_a_at) / Fold change /veh SPINT1 (11716480_a_at) / RFU GAP43 (11754022_s_at) / Fold change /veh GAP43 (11754022_s_at) / RFU A4GNT (11735810_at) / Fold change /veh A4GNT (11735810_at) / RFU PRB3 (11715151_x_at) / Fold change /veh PRB3 (11715151_x_at) / RFU TUBB4B (11761932_at) / Fold change /veh TUBB4B (11761932_at) / RFU CAPN14 (11732068_a_at) / Fold change /veh CAPN14 (11732068_a_at) / RFU TMCC2 (11721928_a_at) / Fold change /veh TMCC2 (11721928_a_at) / RFU IRGQ (11745062_a_at) / Fold change /veh IRGQ (11745062_a_at) / RFU FAM174B (11720279_a_at) / Fold change /veh FAM174B (11720279_a_at) / RFU TMPRSS4 (11748680_a_at) / Fold change /veh TMPRSS4 (11748680_a_at) / RFU FAM212B (11763350_a_at) / Fold change /veh FAM212B (11763350_a_at) / RFU PLEKHG5 (11743358_a_at) / Fold change /veh PLEKHG5 (11743358_a_at) / RFU ZSCAN30 (11745921_a_at) / Fold change /veh ZSCAN30 (11745921_a_at) / RFU CMKLR1 (11741424_a_at) / Fold change /veh CMKLR1 (11741424_a_at) / RFU LOC101060620 /// MAPK8IP1 (11723275_at) / Fold change /veh LOC101060620 /// MAPK8IP1 (11723275_at) / RFU SPTSSB (11747773_x_at) / Fold change /veh SPTSSB (11747773_x_at) / RFU PRSS12 (11739890_at) / Fold change /veh PRSS12 (11739890_at) / RFU BIN1 (11741810_x_at) / Fold change /veh BIN1 (11741810_x_at) / RFU WNT11 (11732464_a_at) / Fold change /veh WNT11 (11732464_a_at) / RFU C10orf10 (11716521_a_at) / Fold change /veh C10orf10 (11716521_a_at) / RFU C5orf56 (11738089_at) / Fold change /veh C5orf56 (11738089_at) / RFU CYB561 (11721691_x_at) / Fold change /veh CYB561 (11721691_x_at) / RFU ANKRD19P (11752326_a_at) / Fold change /veh ANKRD19P (11752326_a_at) / RFU OR2T12 /// OR2T33 /// OR2T8 (11738714_s_at) / Fold change /veh OR2T12 /// OR2T33 /// OR2T8 (11738714_s_at) / RFU VCAN (11748164_a_at) / Fold change /veh VCAN (11748164_a_at) / RFU JSRP1 (11732532_at) / Fold change /veh JSRP1 (11732532_at) / RFU KRTAP10-11 (11738290_x_at) / Fold change /veh KRTAP10-11 (11738290_x_at) / RFU MYO3A (11730013_a_at) / Fold change /veh MYO3A (11730013_a_at) / RFU EBF3 (11725865_a_at) / Fold change /veh EBF3 (11725865_a_at) / RFU CAMK2N1 (11719241_x_at) / Fold change /veh CAMK2N1 (11719241_x_at) / RFU C5orf56 (11738088_a_at) / Fold change /veh C5orf56 (11738088_a_at) / RFU OLFML3 (11715873_a_at) / Fold change /veh OLFML3 (11715873_a_at) / RFU LOC100653217 /// NTM (11731650_a_at) / Fold change /veh LOC100653217 /// NTM (11731650_a_at) / RFU MAPK11 (11762145_a_at) / Fold change /veh MAPK11 (11762145_a_at) / RFU FIZ1 (11724087_x_at) / Fold change /veh FIZ1 (11724087_x_at) / RFU OASL (11726364_x_at) / Fold change /veh OASL (11726364_x_at) / RFU SOX15 (11748057_x_at) / Fold change /veh SOX15 (11748057_x_at) / RFU CD79A (11719716_a_at) / Fold change /veh CD79A (11719716_a_at) / RFU HIST1H1D (11736915_at) / Fold change /veh HIST1H1D (11736915_at) / RFU CASKIN2 (11723855_a_at) / Fold change /veh CASKIN2 (11723855_a_at) / RFU LOC730098 (11760151_x_at) / Fold change /veh LOC730098 (11760151_x_at) / RFU OR4N2 (11742367_at) / Fold change /veh OR4N2 (11742367_at) / RFU PRRT2 (11749266_a_at) / Fold change /veh PRRT2 (11749266_a_at) / RFU SNX32 (11753110_a_at) / Fold change /veh SNX32 (11753110_a_at) / RFU CDHR5 (11726645_a_at) / Fold change /veh CDHR5 (11726645_a_at) / RFU RCAN1 (11760418_a_at) / Fold change /veh RCAN1 (11760418_a_at) / RFU FAM167A (11723789_a_at) / Fold change /veh FAM167A (11723789_a_at) / RFU FAM26E (11764081_at) / Fold change /veh FAM26E (11764081_at) / RFU ISYNA1 (11749810_s_at) / Fold change /veh ISYNA1 (11749810_s_at) / RFU ACY1 (11761880_at) / Fold change /veh ACY1 (11761880_at) / RFU 11764098_at / Fold change /veh 11764098_at / RFU SAMD14 (11745864_x_at) / Fold change /veh SAMD14 (11745864_x_at) / RFU NPB (11741838_a_at) / Fold change /veh NPB (11741838_a_at) / RFU TMPRSS6 (11731388_a_at) / Fold change /veh TMPRSS6 (11731388_a_at) / RFU KRTAP10-2 (11738614_at) / Fold change /veh KRTAP10-2 (11738614_at) / RFU ARHGAP8 /// PRR5-ARHGAP8 (11727945_x_at) / Fold change /veh ARHGAP8 /// PRR5-ARHGAP8 (11727945_x_at) / RFU KRTAP5-7 /// NADSYN1 (11734609_at) / Fold change /veh KRTAP5-7 /// NADSYN1 (11734609_at) / RFU RASL12 (11751679_a_at) / Fold change /veh RASL12 (11751679_a_at) / RFU CDKN2B (11736163_a_at) / Fold change /veh CDKN2B (11736163_a_at) / RFU PRF1 (11729649_at) / Fold change /veh PRF1 (11729649_at) / RFU, ZNF638 /// ZNF638-IT1 / Fold change vs veh, ZNF638 /// ZNF638-IT1 / RFU, PANK3 / Fold change vs veh, PANK3 / RFU, SH3YL1 / Fold change vs veh, SH3YL1 / RFU, ZEB2 / Fold change vs veh, ZEB2 / RFU, NRIP1 / Fold change vs veh, NRIP1 / RFU, PTTG1IP / Fold change vs veh, PTTG1IP / RFU, CAPN2 / Fold change vs veh, CAPN2 / RFU, MED14 / Fold change vs veh, MED14 / RFU, SNORA58 / Fold change vs veh, SNORA58 / RFU, C1orf63 / Fold change vs veh, C1orf63 / RFU, LRRFIP1 / Fold change vs veh, LRRFIP1 / RFU, NDUFAF7 / Fold change vs veh, NDUFAF7 / RFU, SLC12A2 / Fold change vs veh, SLC12A2 / RFU, IBTK / Fold change vs veh, IBTK / RFU, ESF1 / Fold change vs veh, ESF1 / Fold change vs veh, TMEM50B / RFU, TAOK1 / Fold change vs veh, TAOK1 / RFU, ACBD3 / Fold change vs veh, ACBD3 / RFU, TMA16 / Fold change vs veh, TMA16 / RFU, RWDD3 / Fold change vs veh, RWDD3 / RFU, BCAT1 / Fold change vs veh, BCAT1 / RFU, EDEM3 / Fold change vs veh, EDEM3 / RFU, TMEM33 / Fold change vs veh, TMEM33 / RFU, WDR75 / Fold change vs veh, WDR75 / RFU, AHCTF1 / Fold change vs veh, AHCTF1 / RFU, TFRC / Fold change vs veh, TFRC / RFU, ZDHHC17 / Fold change vs veh, ZDHHC17 / RFU, NOM1 / Fold change vs veh, NOM1 / RFU, ARL8B / Fold change vs veh, ARL8B / RFU, ZBTB11 / Fold change vs veh, ZBTB11 / RFU, TAMM41 / Fold change vs veh, TAMM41 / RFU, KIAA1704 /// LOC100996395 / Fold change vs veh, KIAA1704 /// LOC100996395 / RFU, ING1 / Fold change vs veh, ING1 / RFU, TRMT61B / Fold change vs veh, TRMT61B / RFU, FUBP3 / Fold change vs veh, FUBP3 / RFU, TP53 / Fold change vs veh, TP53 / RFU, TNKS2 / Fold change vs veh, TNKS2 / RFU, ZFP14 / Fold change vs veh, ZFP14 / RFU, ACTR2 / Fold change vs veh, ACTR2 / RFU, PPP3R1 / Fold change vs veh, PPP3R1 / RFU, PIK3R1 / Fold change vs veh, PIK3R1 / RFU, HNRNPA1 / Fold change vs veh, HNRNPA1 / RFU, RNF170 / Fold change vs veh, RNF170 / RFU, ZNF28 / Fold change vs veh, ZNF28 / RFU, RNGTT / Fold change vs veh, RNGTT / RFU, OGT / Fold change vs veh, OGT / RFU, BRD1 / Fold change vs veh, BRD1 / RFU, MARS / Fold change vs veh, MARS / RFU, ZNF655 / Fold change vs veh, ZNF655 / RFU, FAHD1 / Fold change vs veh, FAHD1 / RFU, BDP1 / Fold change vs veh, BDP1 / RFU, LRRCC1 / Fold change vs veh, LRRCC1 / RFU, ARID1A / Fold change vs veh, ARID1A / RFU, ZNF146 / Fold change vs veh, ZNF146 / RFU, ZNF330 / Fold change vs veh, ZNF330 / RFU, GPN3 / Fold change vs veh, GPN3 / RFU, C9orf123 / Fold change vs veh, C9orf123 / RFU, N4BP2L2 / Fold change vs veh, N4BP2L2 / RFU, ARFIP1 / Fold change vs veh, ARFIP1 / RFU, FAM179B / Fold change vs veh, FAM179B / RFU, BCL10 / Fold change vs veh, BCL10 / RFU, UHRF1BP1L / Fold change vs veh, UHRF1BP1L / RFU, BET1 / Fold change vs veh, BET1 / RFU, CNOT2 / Fold change vs veh, CNOT2 / RFU, ZNF268 / Fold change vs veh, ZNF268 / Fold change vs veh, ZNF507 / RFU, DGCR2 / Fold change vs veh, DGCR2 / RFU, WDSUB1 / Fold change vs veh, WDSUB1 / Fold change vs veh, HSP90B1 /// MIR3652 / RFU, ADSS / Fold change vs veh, ADSS / RFU, GK / Fold change vs veh, GK / RFU, ZNF148 / Fold change vs veh, ZNF148 / RFU, TAF9 / Fold change vs veh, TAF9 / RFU, SLC1A5 / Fold change vs veh, SLC1A5 / RFU, SLMO2 / Fold change vs veh, SLMO2 / RFU, ABCC4 / Fold change vs veh, ABCC4 / RFU, LOC101060439 /// RAP1B / Fold change vs veh, LOC101060439 /// RAP1B / RFU, RFX7 / Fold change vs veh, RFX7 / RFU, GTPBP10 / Fold change vs veh, GTPBP10 / RFU, CNEP1R1 / Fold change vs veh, CNEP1R1 / RFU, BIVM-ERCC5 /// ERCC5 / Fold change vs veh, BIVM-ERCC5 /// ERCC5 / RFU, ILF3 / Fold change vs veh, ILF3 / RFU 11762660_at / Fold change /veh 11762660_at / RFU VCAN (11757783_s_at) / Fold change /veh VCAN (11757783_s_at) / RFU DDX43 (11728927_at) / Fold change /veh DDX43 (11728927_at) / RFU KRT8 (11758188_x_at) / Fold change /veh KRT8 (11758188_x_at) / RFU NKD1 (11759106_at) / Fold change /veh NKD1 (11759106_at) / RFU SRD5A1 (11742802_a_at) / Fold change /veh SRD5A1 (11742802_a_at) / RFU TPSAB1 /// TPSB2 (11721975_s_at) / Fold change /veh TPSAB1 /// TPSB2 (11721975_s_at) / RFU GSTM3 (11746129_a_at) / Fold change /veh GSTM3 (11746129_a_at) / RFU IL23R (11737362_x_at) / Fold change /veh IL23R (11737362_x_at) / RFU TMEM51 (11727254_a_at) / Fold change /veh TMEM51 (11727254_a_at) / RFU PIWIL2 (11732686_x_at) / Fold change /veh PIWIL2 (11732686_x_at) / RFU ORM1 (11744905_x_at) / Fold change /veh ORM1 (11744905_x_at) / RFU CCDC152 (11743942_at) / Fold change /veh CCDC152 (11743942_at) / RFU ECM1 (11717891_a_at) / Fold change /veh ECM1 (11717891_a_at) / RFU IL23R (11748794_a_at) / Fold change /veh IL23R (11748794_a_at) / RFU TNFAIP8L3 (11732012_x_at) / Fold change /veh TNFAIP8L3 (11732012_x_at) / RFU MBOAT4 (11741988_at) / Fold change /veh MBOAT4 (11741988_at) / RFU 11764193_at / Fold change /veh 11764193_at / RFU TMEM53 (11763286_at) / Fold change /veh TMEM53 (11763286_at) / RFU MAGEB2 (11727129_at) / Fold change /veh MAGEB2 (11727129_at) / RFU TMEM200A (11744735_a_at) / Fold change /veh TMEM200A (11744735_a_at) / RFU CCDC152 (11751479_a_at) / Fold change /veh CCDC152 (11751479_a_at) / RFU FAM211A (11726209_a_at) / Fold change /veh FAM211A (11726209_a_at) / RFU RGS16 (11746705_a_at) / Fold change /veh RGS16 (11746705_a_at) / RFU VCAN (11755009_s_at) / Fold change /veh VCAN (11755009_s_at) / RFU RHOB (11743442_s_at) / Fold change /veh RHOB (11743442_s_at) / RFU RGS16 (11720943_a_at) / Fold change /veh RGS16 (11720943_a_at) / RFU RGS16 (11720944_at) / Fold change /veh RGS16 (11720944_at) / RFU, VPS4B / Fold change vs veh, VPS4B / RFU, CREB1 / Fold change vs veh, CREB1 / RFU, DNAJC13 / Fold change vs veh, DNAJC13 / RFU, GNAQ / Fold change vs veh, GNAQ / RFU, CDK5R1 / Fold change vs veh, CDK5R1 / RFU, ZRANB3 / Fold change vs veh, ZRANB3 / RFU, CUL4A / Fold change vs veh, CUL4A / RFU, CCNY / Fold change vs veh, CCNY / RFU, UFL1 / Fold change vs veh, UFL1 / RFU, COG3 / Fold change vs veh, COG3 / RFU, DIAPH2 / Fold change vs veh, DIAPH2 / RFU, SKA2 / Fold change vs veh, SKA2 / RFU, AFF3 / Fold change vs veh, AFF3 / RFU, LMF1 / Fold change vs veh, LMF1 / RFU, IPO11 / Fold change vs veh, IPO11 / RFU, DFFB / Fold change vs veh, DFFB / RFU, FOXP1 / Fold change vs veh, FOXP1 / RFU, CARD8 / Fold change vs veh, CARD8 / RFU, STRN3 / Fold change vs veh, STRN3 / RFU, ADK / Fold change vs veh, ADK / RFU, RASSF2 / Fold change vs veh, RASSF2 / RFU, WIPF1 / Fold change vs veh, WIPF1 / RFU, LARP1B / Fold change vs veh, LARP1B / RFU, RASA1 / Fold change vs veh, RASA1 / RFU, RB1 / Fold change vs veh, RB1 / RFU, PPFIA1 / Fold change vs veh, PPFIA1 / RFU, MAT2A / Fold change vs veh, MAT2A / RFU, CCT5 / Fold change vs veh, CCT5 / RFU, WDR92 / Fold change vs veh, WDR92 / RFU, CUX1 / Fold change vs veh, CUX1 / RFU, TTC7A / Fold change vs veh, TTC7A / RFU, TMEM135 / Fold change vs veh, TMEM135 / RFU, DEPTOR / Fold change vs veh, DEPTOR / RFU, CPM / Fold change vs veh, CPM / RFU, DNAJB6 / Fold change vs veh, DNAJB6 / RFU, CACNA2D3 / Fold change vs veh, CACNA2D3 / RFU, DTX4 / Fold change vs veh, DTX4 / RFU, TFCP2 / Fold change vs veh, TFCP2 / RFU, GMCL1 /// GMCL1P1 / Fold change vs veh, GMCL1 /// GMCL1P1 / RFU, AEBP2 / Fold change vs veh, AEBP2 / RFU, SNHG1 /// SNORD22 /// SNORD25 /// SNORD26 /// SNORD27 /// SNORD28 /// SNORD29 /// SNORD31 / Fold change vs veh, SNHG1 /// SNORD22 /// SNORD25 /// SNORD26 /// SNORD27 /// SNORD28 /// SNORD29 /// SNORD31 / Fold change (Aza/veh), C12orf56 (ProbeSet 11735607_a_at) / Fold change (ACY-1035/veh), C12orf56 (ProbeSet 11735607_a_at) / Fold change (Aza/veh), FGFR1OP (ProbeSet 11751329_s_at) / Fold change (ACY-1035/veh), FGFR1OP (ProbeSet 11751329_s_at) / Fold change (Aza/veh), VPS36 (ProbeSet 11739960_a_at) / Fold change (ACY-1035/veh), VPS36 (ProbeSet 11739960_a_at) / RFU SYPL1 (11715823_x_at) / Fold change /veh SYPL1 (11715823_x_at) / RFU IGFBP7 (11715501_s_at) / Fold change /veh IGFBP7 (11715501_s_at) / RFU REEP3 (11722064_at) / Fold change /veh REEP3 (11722064_at) / RFU IGLL1 (11728026_x_at) / Fold change /veh IGLL1 (11728026_x_at): dose or concentration left out as unconfirmed. The conditions noted are these: MV-4-11 cells, 48 hours.

Regarding `Nc1ncn([C@@H]2O[C@H](CO)[C@@H](O)[C@H]2O)c(=O)n1` [azacitidine], the “RFU DDX43 (11728927_at)” value worked out at 12.02 RFU.
